Measurements reported in US11766470B2, “Manufacture, formulation and dosing of apraglutide” (VectivBio AG, priority 2020, dated 2023).
Where “and” joins values, the source holds several entries; their conditions need not be identical. Equal values may be shown once. Square brackets hold non-standard residues; d marks the D form. Peptide text beside a SMILES is read from it. ξ: configuration not given here. Ile(3ξ) = CCC(C)[C@H](N)C(=O)O; Thr(3ξ) = CC(O)[C@H](N)C(=O)O; Nle = CCCC[C@H](N)C(=O)O

Experiments:
[1] = system: patients with SBS-IF or SBS-II; conditions: in vivo
Experimental: Patients were treated with once weekly 5 mg apraglutide for four weeks. Apraglutide was provided as a freeze-dried powder for reconstitution in sterile water prior to injection, and treatments were administered as subcutaneous injections in the abdominal area. A 72-hour metabolic balance study was performed at baseline and at the end of the treatment period (starting one day after the fourth and last apraglutide injection). Each 72-hour metabolic balance study was performed during a five-day hospital admission. On the day of admission, patients were instructed to create a 24-hour drinking menu based on their habitual oral fluid intake. The drinking menu was to be followed during each balance study. On the second day of admission, just after the patients had urinated and emptied their stoma bags or defecated, the balance study was initiated. […] Daily PS and compliance to the predefined drinking menu was documented during admissions.
First, second and fourth apraglutide injections were performed at the hospital. Safety assessments included observation for injection site reactions, vital signs, blood samples, electrocardiogram (ECG), urinalysis and body weight. They were performed at baseline, during each injection of the trial drug, four days after first injection, at the end of treatment and 4-6 weeks after last dosing at the end of the trial, as shown in Table 20. Liver enzymes were measured prior to each drug administration.

[2] = system: anti-apraglutide antibodies; assay: Anti-apraglutide antibodies ELISA in serum, Phase 2 SBS-IF trial (Example 5); assay type: in vivo, human
From the text: Blood samples for analysis of plasma concentration of apraglutide and fasting plasma L-citrulline, a marker of enterocyte mass, were collected at baseline, during first and second treatment injection, four days after first treatment injection and at the end of treatment.
A fully validated ELISA method was used for the detection of anti-apraglutide antibodies in serum, following a three-tiered assay approach. In the first tier, anti-apraglutide antibodies present in samples and controls bonded to apraglutide immobilized on a microtiter plate. The bound anti-apraglutide antibodies were then detected with protein A/G and protein L. A sample with a signal above the validated screening cut-point was considered potentially positive and was then tested in the second tier, the confirmatory assay. For this, samples were pre-treated with an excess of apraglutide prior to testing them in the assay described above. An inhibition of the signal equal to or greater than the validated confirmatory cut-point confirmed the presence of antibodies. Samples were then reported as anti-apraglutide antibody positive. Titers were then determined by serial dilution of all confirmed positive samples.

[3] = system: patients with SBS-IF or SBS-II; assay: Phase 2 open-label metabolic balance trial in SBS-IF and SBS-II patients (Example 6): 72-hour metabolic balance, body composition, plasma L-citrulline; assay type: in vivo, human; conditions: 5 mg once weekly
Experimental: Treatment with glucagon-like peptide-2 (GLP-2) analogs promotes intestinal adaptation in patients with short bowel syndrome (SBS). Apraglutide is a novel long-acting GLP-2 analog designed to enable once weekly dosing. This Phase 2 trial investigated the safety and efficacy of once weekly 5 mg apraglutide in patients with SBS intestinal failure (SBS-IF) and SBS intestinal insufficiency (SBS-II). In this open-label trial, 8 adult patients with SBS-IF (n=4) or SBS-II (n=4) and a fecal wet weight of >1500 g/day were treated with once weekly subcutaneous 5 mg apraglutide for 4 weeks. Safety was the primary endpoint. As secondary endpoints changes were examined from baseline in intestinal absorption of wet weight, energy (measured by bomb calorimetry) and electrolytes as well as fecal wet weight and urine production using 72-hour metabolic balance studies. Common treatment-related adverse events were consistent with the physiological effect of GLP-2 and included reduced stoma output (n=6), stoma complication (n=6), nausea (n=5), flatulence (n=4), polyuria (n=3) and abdominal pain (n=3).
A total of nine adult patients (aged ≥18 to ≤80 years) with SBS were screened, eight of whom enrolled in the trial: four patients had SBS-II and four patients had SBS-IF. Both subgroups of patients were included to investigate the safety and efficacy of apraglutide across the disease spectrum. Patient eligibility was assessed during a screening visit. Main inclusion criteria were SBS secondary to surgical resection of the small intestine with or without colon; at least six months since last surgical bowel resection; and a severe degree of malabsorption, defined as a fecal wet weight output≥1,500 g/day and a urine volume production<2000 mL/day.
Fecal output and urine volume production were confirmed during baseline examinations. Patients were excluded if they had clinical signs of active inflammatory bowel disease, a history of cancer within five years or an inadequate hepatic-, kidney- or heart function.
The contents of the buckets were weighed, processed intro dry matter, and analyzed as previously described: energy by bomb calorimetry, nitrogen by Kjeldahl's method, lipid by a modified Van de Kamer titration technique, carbohydrate by Englyst's method, sodium and potassium by flame photometry and calcium and magnesium by atomic absorption spectrometry. A 24-hour average was calculated based on the three 24-hour periods. Absolute changes were calculated as the difference between the baseline and the post-treatment value. Relative changes were calculated as absolute changes divided by baseline values multiplied by 100.
Body weight was measured using a levelled platform scale. Body composition was measured by dual-energy x-ray absorptiometry (Norland XR-36 DXA densitometer, Norland, Ford Atkinson, WI, USA) at baseline and post-treatment.
Blood samples for analysis of the plasma concentration of apraglutide and plasma concentration of fasting L-citrulline, a marker of enterocyte mass, were collected at baseline, during first and second injection (pre-dose and at sequential timepoints), four days after first injection and at the end of treatment. Blood sampling for apraglutide pharmacokinetics was also performed after the fourth and last injection covering 96 hours. […] Blood samples for anti-apraglutide antibodies were collected at baseline, at the end of treatment and at the 4-6 weeks follow-up visit. All eight patients tested negative for anti-apraglutide antibodies at baseline.
The primary endpoint of this trial was safety. Secondary endpoints were absolute and relative changes from baseline in dietary intake, fecal excretion and absorption of wet weight, energy, macronutrients and electrolytes, urine production, urine electrolyte excretion, body weight, body composition, bone mineral content, plasma L-citrulline as well as pharmacokinetic profiles. […]

[4] = comparison with other GLP-2 analogs

SMILES: CCCC[C@H](NC(=O)[C@H](CCC(=O)O)NC(=O)[C@H](CC(=O)O)NC(=O)[C@H](CO)NC(=O)[C@H](Cc1ccccc1)NC(=O)[C@H](CO)NC(=O)CNC(=O)[C@H](CC(=O)O)NC(=O)CNC(=O)[C@@H](N)Cc1c[nH]cn1)C(=O)N[C@H](Cc1ccccc1)C(=O)N[C@H](C(=O)N[C@H](C(=O)N[C@@H](CC(C)C)C(=O)N[C@@H](CC(=O)O)C(=O)N[C@@H](CC(C)C)C(=O)N[C@@H](CC(C)C)C(=O)N[C@@H](C)C(=O)N[C@@H](C)C(=O)N[C@@H](CCCNC(=N)N)C(=O)N[C@@H](CC(=O)O)C(=O)N[C@@H](Cc1ccccc1)C(=O)N[C@H](C(=O)N[C@@H](CC(N)=O)C(=O)N[C@@H](Cc1c[nH]c2ccccc12)C(=O)N[C@@H](CC(C)C)C(=O)N[C@H](C(=O)N[C@@H](CCC(N)=O)C(=O)N[C@H](C(=O)N[C@@H](CCCCN)C(=O)N[C@H](C(=O)N[C@H](C(=O)N[C@@H](CC(=O)O)C(N)=O)C(C)O)C(C)CC)C(C)O)C(C)CC)C(C)CC)C(C)CC)C(C)O (stereo partly drawn) [apraglutide, L-histidyl-glycyl-L-aspartyl-glycyl-L-seryl-L-phenylalanyl-L-seryl-L-aspartyl-L-glutamyl-L-norleucyl-D-phenylalanyl-L-threonyl-Lisoleucyl-L-leucyl-L-aspartyl-L-leucyl-L-leucyl-L-alanyl-L-alanyl-L-arginyl-L-aspartyl-L-phenylalanyl-L-isoleucyl-L-asparaginyl-Ltryptophanyl-L-leucyl-L-isoleucyl-L-glutaminyl-L-threonyl-L-lysyl-L-isoleucyl-L-threonyl-Laspartic acid amide] (H-HGDGSFSDE[Nle][dF][Thr(3ξ)][Ile(3ξ)]LDLLAARDF[Ile(3ξ)]NWL[Ile(3ξ)]Q[Thr(3ξ)]K[Ile(3ξ)][Thr(3ξ)]D-NH2)
- Deaths [1]: no deaths occurred
- Patients who developed anti-apraglutide antibodies ([2]; during the trial): Three
- Patients positive for anti-apraglutide antibodies ([2]; end of 5 mg treatment period): Two
- Patients positive for anti-apraglutide antibodies ([2]; end of 10 mg treatment period): one
- Effects of anti-apraglutide antibodies on PK profile, pharmacodynamic response, adverse events ([2]; in vivo): No effects of anti-apraglutide antibodies were detected
- Body weight increase from baseline ([3]; 4 weeks): 1.8 kg
- Bone mineral content change from baseline ([3]; 4 weeks): -20 g
- Calcium, absorption, change from baseline ([3]; 4 weeks): 11 (−13 to 35); mmol/day
- Calcium, dietary intake, change from baseline ([3]; 4 weeks): −2 (−5 to 2); mmol/day
- Calcium, fecal output, change from baseline ([3]; 4 weeks): −13 (−36 to 11); mmol/day
- Calcium, urine excretion, change from baseline ([3]; 4 weeks): 0 (−1 to 1) mmol/day
- Carbohydrate, absorption, change from baseline ([3]; 4 weeks): 518 (112 to 924); kJ/day
- Carbohydrate, dietary intake, change from baseline ([3]; 4 weeks): 154 (−268 to 575); kJ/day
- Carbohydrate, fecal output, change from baseline ([3]; 4 weeks): −365 (−772 to 43); kJ/day
- Energy, dietary intake, change from baseline ([3]; 4 weeks): 154 (−1,006 to 1,314); kJ/day
- Fat mass decrease from baseline ([3]; 4 weeks): 1.1 kg
- Lean body mass increase from baseline ([3]; 4 weeks): 1.7 kg
- Lipid, absorption, change from baseline ([3]; 4 weeks): 376 (61 to 691); kJ/day
- Lipid, dietary intake, change from baseline ([3]; 4 weeks): 67 (−638 to 771); kJ/day
- Lipid, fecal output, change from baseline ([3]; 4 weeks): −309 (−969 to 351) kJ/day
- Magnesium, absorption, change from baseline ([3]; 4 weeks): 0 (−9 to 9); mmol/day
- Magnesium, dietary intake, change from baseline ([3]; 4 weeks): 1 (−2 to 3); mmol/day
- Magnesium, fecal output, change from baseline ([3]; 4 weeks): 0 (−9 to 9); mmol/day
- Magnesium, urine excretion, change from baseline ([3]; 4 weeks): 1 (−1 to 2), mmol/day
- Plasma L-citrulline, absolute increase from baseline ([3]; 4 weeks): 15.2 µmol/L
- Plasma L-citrulline, relative increase from baseline ([3]; 4 weeks): 66%
- Potassium, absorption, change from baseline ([3]; 4 weeks): 18 (4 to 32; p < 0.05) mmol/day and 18 (4 to 32); mmol/day
- Potassium, dietary intake, change from baseline ([3]; 4 weeks): 4 (−5 to 12); mmol/day
- Potassium, fecal output, change from baseline ([3]; 4 weeks): −15 (−32 to 3); mmol/day
- Potassium, urine excretion, change from baseline ([3]; 4 weeks): 13 (6 to 20); mmol/day
- Protein, absorption, change from baseline ([3]; 4 weeks): 104 (−205 to 412); kJ/day
- Protein, dietary intake, change from baseline ([3]; 4 weeks): −41 (−274 to 191); kJ/day
- Protein, fecal output, change from baseline ([3]; 4 weeks): −145 (−497 to 207); kJ/day
- Sodium, absorption, change from baseline ([3]; 4 weeks): 38 (3 to 74; p < 0.05) mmol/day and 38 (3 to 74); mmol/day
- Sodium, dietary intake, change from baseline ([3]; 4 weeks): −5 (−30 to 21); mmol/day
- Sodium, fecal output, change from baseline ([3]; 4 weeks): −43 (−92 to 6); mmol/day
- Sodium, urine excretion, change from baseline ([3]; 4 weeks): 27 (5 to 49); mmol/day
- Wet weight, absorption, change from baseline ([3]; 4 weeks): 741 (194 to 1287; p < 0.05) g/day and 741 (194 to 1,287); g/day
- Wet weight, dietary intake, change from baseline ([3]; 4 weeks): 61 (−84.0 to 207); g/day
- Wet weight, fecal output, change from baseline ([3]; 4 weeks): −680 (−1200 to −159; p < 0.05) ^ g/day and −680 (−1,200 to −159); g/day
- Wet weight, urine (urine production), change from baseline ([3]; 4 weeks): 560 (72 to 1048; p < 0.05) g/day and 560 (72 to 1,048); g/day
- Energy, absorption, change from baseline ([3]; 4 weeks, bomb calorimetry): 1,095 kJ/day
- Potassium, absorption, change from baseline ([3]; 4 weeks, listed as Apraglutide): 18 mmol/day
- Potassium, urine excretion, change from baseline ([3]; 4 weeks, listed as Apraglutide): 13 mmol/day
- Sodium, absorption, change from baseline ([3]; 4 weeks, listed as Apraglutide): 38 mmol/day
- Sodium, urine excretion, change from baseline ([3]; 4 weeks, listed as Apraglutide): 27 mmol/day
- Wet weight, absorption, change from baseline ([3]; 4 weeks, listed as Apraglutide): 741 g/day
- Wet weight, fecal output, change from baseline ([3]; 4 weeks, listed as Apraglutide): -680 g/day
- Wet weight, urine (urine production), change from baseline ([3]; 4 weeks, listed as Apraglutide): 560 g/day
- Change from baseline increase in urinary input [3, 4]: 140.1%
- Change in baseline in energy absorption [3, 4]: 1,074 kj/day
- Change in baseline in wet weight absorption [3, 4]: 760.4 g/day
